Test results: paper PMC12951562, “SH2scan: Mapping SH2 Domain-Ligand Binding Selectivity for Inhibitors and Degraders” (Journal of Medicinal Chemistry, 2026)
Read-outs that look alike come from different tables or passages of the source. Non-standard residues stand in square brackets, D forms with d. Residues, ends and D or L forms follow the SMILES beside them. *: point of attachment. pY = N[C@@H](Cc1ccc(OP(=O)(O)O)cc1)C(=O)O; Caffeoyl = O=C(/C=C/c1ccc(O)c(O)c1)*

What was measured:
Assay in all cases: biochemical
Type in all cases: binding
CBLB = target: T1, CBLB (Homo sapiens, UniProt Q13191); conditions: for percent of DMSO vehicle control: primary screen, 10 μM
T1 construct: the DNA-tagged SH2 domain concentrations used in this study were <0.1 nM; made in house; host or cells: HEK293 (transient transfection; unpurified extract)
T1 sequence (Q13191 241-343 limits assumed): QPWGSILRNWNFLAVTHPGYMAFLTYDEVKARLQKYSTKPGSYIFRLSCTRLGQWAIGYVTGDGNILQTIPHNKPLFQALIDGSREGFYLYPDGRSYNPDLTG

GRB2 = target: T2, GRB2 (Homo sapiens, UniProt P62993); conditions: for percent of DMSO vehicle control: primary screen, 10 μM
T2 construct: the DNA-tagged SH2 domain concentrations used in this study were <0.1 nM; made in house; host or cells: HEK293 (transient transfection; unpurified extract)
T2 sequence (P62993 60-152 limits assumed): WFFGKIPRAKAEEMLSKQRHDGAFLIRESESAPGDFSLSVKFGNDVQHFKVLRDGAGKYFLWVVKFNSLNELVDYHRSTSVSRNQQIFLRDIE

ITK = target: T3, ITK (Homo sapiens, UniProt Q08881); conditions: for percent of DMSO vehicle control: primary screen, 10 μM
T3 construct: the DNA-tagged SH2 domain concentrations used in this study were <0.1 nM; made in house; host or cells: HEK293 (transient transfection, unpurified extract)
T3 sequence (Q08881 239-338 limits assumed): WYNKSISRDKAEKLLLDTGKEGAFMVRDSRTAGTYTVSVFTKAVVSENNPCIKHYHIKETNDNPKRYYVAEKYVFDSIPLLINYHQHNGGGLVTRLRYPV

PLCG1(SH2dom.N-term.) = target: T4, PLCG1(SH2dom.N-term.) (Homo sapiens, UniProt P19174); conditions: for remaining activity at 10 µM: read-out: percent of DMSO vehicle control
T4 construct: SH2dom.N-term. denotes SH2 domain closest to N-terminus of protein; made in house; host or cells: HEK293 (transient transfection, unpurified extract)
T4 sequence (P19174 550-657 limits assumed): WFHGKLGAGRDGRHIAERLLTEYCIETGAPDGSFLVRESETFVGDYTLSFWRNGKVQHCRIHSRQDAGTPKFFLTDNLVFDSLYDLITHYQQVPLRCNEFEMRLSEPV

PLCG2(SH2dom.C-term.) = target: T5, PLCG2(SH2dom.C-term.) (Homo sapiens, UniProt P16885); conditions: for remaining activity at 10 µM: read-out: percent of DMSO vehicle control
T5 construct: SH2dom.C-term. denotes SH2 domain closest to C-terminus of protein; made in house; host or cells: HEK293 (transient transfection, unpurified extract)
T5 sequence (P16885 646-735 limits assumed): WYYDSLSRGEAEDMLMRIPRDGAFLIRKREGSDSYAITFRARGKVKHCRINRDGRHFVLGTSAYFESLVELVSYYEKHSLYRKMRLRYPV

SHC1 = target: T6, SHC1 (Homo sapiens, UniProt P29353); conditions: for remaining activity at 10 µM: read-out: percent of DMSO vehicle control
T6 construct: made in house; host or cells: HEK293 (transient transfection), unpurified extract
T6 sequence (P29353 1-583): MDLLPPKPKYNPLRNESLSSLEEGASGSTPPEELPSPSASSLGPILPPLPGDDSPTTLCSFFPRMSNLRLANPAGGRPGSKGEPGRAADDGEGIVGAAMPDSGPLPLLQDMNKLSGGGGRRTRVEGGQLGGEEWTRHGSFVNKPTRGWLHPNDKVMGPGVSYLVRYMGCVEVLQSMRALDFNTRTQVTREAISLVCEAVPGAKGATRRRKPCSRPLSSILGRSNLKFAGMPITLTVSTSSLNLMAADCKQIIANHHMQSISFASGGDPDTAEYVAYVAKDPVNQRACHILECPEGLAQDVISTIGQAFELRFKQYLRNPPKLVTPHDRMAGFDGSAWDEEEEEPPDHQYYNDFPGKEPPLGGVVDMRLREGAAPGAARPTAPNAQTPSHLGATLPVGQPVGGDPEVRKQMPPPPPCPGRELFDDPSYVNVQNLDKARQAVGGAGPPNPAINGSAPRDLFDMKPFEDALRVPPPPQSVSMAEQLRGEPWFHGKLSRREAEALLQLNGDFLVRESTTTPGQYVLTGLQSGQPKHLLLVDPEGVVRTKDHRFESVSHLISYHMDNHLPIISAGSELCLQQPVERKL

SHF = target: T7, SHF (Homo sapiens, UniProt Q7M4L6); conditions: for remaining activity at 10 µM: read-out: percent of DMSO vehicle control
T7 construct: made in house; host or cells: HEK293 (transient transfection), unpurified extract
T7 sequence (Q7M4L6 1-423): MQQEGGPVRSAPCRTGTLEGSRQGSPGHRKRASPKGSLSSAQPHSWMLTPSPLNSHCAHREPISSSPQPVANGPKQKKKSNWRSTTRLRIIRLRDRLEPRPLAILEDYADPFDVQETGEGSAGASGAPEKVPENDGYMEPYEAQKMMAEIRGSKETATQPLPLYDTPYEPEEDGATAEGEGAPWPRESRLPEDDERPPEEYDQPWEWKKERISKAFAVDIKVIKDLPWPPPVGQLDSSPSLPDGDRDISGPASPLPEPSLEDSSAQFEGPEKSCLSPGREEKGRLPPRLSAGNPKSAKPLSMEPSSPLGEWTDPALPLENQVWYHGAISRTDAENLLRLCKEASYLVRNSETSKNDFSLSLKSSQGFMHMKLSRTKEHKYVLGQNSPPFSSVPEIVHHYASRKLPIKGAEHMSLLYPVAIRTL

SOCS2 = target: T8, SOCS2 (Homo sapiens, UniProt O14508); conditions: for remaining activity at 10 µM: read-out: percent of DMSO vehicle control
T8 construct: made in house; host or cells: HEK293 (transient transfection), unpurified extract
T8 sequence (O14508 1-198): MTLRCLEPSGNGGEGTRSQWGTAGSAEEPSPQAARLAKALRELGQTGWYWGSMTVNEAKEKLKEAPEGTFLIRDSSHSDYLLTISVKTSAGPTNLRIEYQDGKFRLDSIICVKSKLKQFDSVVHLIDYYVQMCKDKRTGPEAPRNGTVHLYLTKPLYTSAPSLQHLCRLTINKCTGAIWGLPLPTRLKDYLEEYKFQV

TEC = target: T9, TEC (Homo sapiens, UniProt P42680); conditions: for percent of DMSO vehicle control at 10 µM / remaining activity at 10 µM: read-out: percent of DMSO vehicle control
T9 construct: made in house; host or cells: HEK293 (transient transfection), unpurified extract
T9 sequence (P42680 1-631): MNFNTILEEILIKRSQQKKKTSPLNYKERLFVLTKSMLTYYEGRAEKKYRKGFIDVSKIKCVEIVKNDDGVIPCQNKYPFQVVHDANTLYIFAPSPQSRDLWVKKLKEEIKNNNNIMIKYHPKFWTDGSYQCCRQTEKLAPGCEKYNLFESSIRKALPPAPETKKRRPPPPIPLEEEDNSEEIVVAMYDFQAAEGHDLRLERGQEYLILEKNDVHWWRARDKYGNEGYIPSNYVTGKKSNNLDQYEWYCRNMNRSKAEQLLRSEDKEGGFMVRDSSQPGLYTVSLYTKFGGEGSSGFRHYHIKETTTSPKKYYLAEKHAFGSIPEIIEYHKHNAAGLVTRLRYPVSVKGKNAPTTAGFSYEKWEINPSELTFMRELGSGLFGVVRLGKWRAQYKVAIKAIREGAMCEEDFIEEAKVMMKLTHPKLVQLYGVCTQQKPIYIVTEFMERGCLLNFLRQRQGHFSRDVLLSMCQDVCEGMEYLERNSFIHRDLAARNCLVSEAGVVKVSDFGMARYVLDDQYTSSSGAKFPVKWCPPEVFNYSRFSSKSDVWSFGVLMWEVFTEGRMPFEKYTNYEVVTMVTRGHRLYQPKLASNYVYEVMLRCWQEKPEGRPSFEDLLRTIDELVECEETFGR

SMILES | percent of DMSO vehicle control (CBLB) [%] | percent of DMSO vehicle control (GRB2) [%] | percent of DMSO vehicle control (ITK) [%] | remaining activity at 10 µM (PLCG1(SH2dom.N-term.)) [%] | remaining activity at 10 µM (PLCG2(SH2dom.C-term.)) [%] | remaining activity at 10 µM (SHC1) [%] | remaining activity at 10 µM (SHF) [%] | remaining activity at 10 µM (SOCS2) [%] | percent of DMSO vehicle control at 10 µM (TEC) [%] | remaining activity at 10 µM (PLCG1(SH2dom.N-term.); primary screen, 10 μM) [%] | remaining activity at 10 µM (PLCG2(SH2dom.C-term.); primary screen, 10 μM) [%] | remaining activity at 10 µM (SHC1; primary screen, 10 μM) [%] | remaining activity at 10 µM (SHF; primary screen, 10 μM) [%] | Kd (SOCS2; dose-response, read-out: KD) [µM] | remaining activity at 10 µM (SOCS2; primary screen, 10 μM) [%] | remaining activity at 10 µM (TEC; primary screen, 10 μM) [%] | further results
CC[C@H](C)[C@H](NC(=O)[C@H](CCC(=O)O)NC(=O)[C@H](CCC(=O)O)NC(=O)[C@H](Cc1ccc(OP(=O)(O)O)cc1)NC(C)=O)C(=O)N[C@@H](CCC(=O)O)C(N)=O [Ac-pYEEIE-NH2] (Ac-[pY]EEIE-NH2) | 116.1 | 77.1 | 122.5 | – | – | – | – | – | – | – | – | – | – | – | – | – | percent of DMSO vehicle control (PLCG1(SH2dom.N-term.); primary screen, 10 μM): 42.1%; percent of DMSO vehicle control (PLCG2(SH2dom.C-term.); primary screen, 10 μM): 90.9%; percent of DMSO vehicle control (SHC1; primary screen, 10 μM): 105.0%; percent of DMSO vehicle control (SHF; primary screen, 10 μM): 60.2%; percent of DMSO vehicle control (SOCS2; primary screen, 10 μM): 104.8%; percent of DMSO vehicle control (TEC; primary screen, 10 μM): 119.3%
CC(=O)N[C@@H](Cc1ccc(CP(=O)(O)O)cc1)C(=O)NC1(C(=O)N[C@@H](CC(N)=O)C(=O)NCCCc2c(O)ccc3ccccc23)CCCCC1 [CGP78850] | 122.1±4.2 | 0.0±0.0 | 113.6±8.8 | 109 ± 14.6 | 104 ± 2.7 | 49.8 ± 6.2 | 77.1 ± 2.6 | 119 ± 4.7 | 126.5 ± 0.2 | – | – | – | – | – | – | – | Kd (GRB2): 0.0034 µM
CC[C@H](C)[C@H](NC(=O)[C@H](CCC(=O)O)NC(=O)[C@H](CCC(=O)O)NC(=O)[C@H](Cc1ccc(OP(=O)(O)O)cc1)NC(=O)/C=C/c1ccc(O)c(O)c1)C(=O)N[C@@H](CCC(=O)O)C(=O)O [Caffeic acid-pYEEIE] (Caffeoyl-[pY]EEIE-OH) | 32.7±22.6 | 73.4±9.2 | 3.1±0.3 | 0.3 | 1.1 ± 0.1 | 0 | 50.6 ± 4.3 | 2.6 ± 0.1 | 0.1 | – | – | – | – | – | – | – | Kd (CBLB): 5.7 ± 1.4 µM; Kd (ITK): 0.57 ± 0.63 µM; Kd (PLCG1(SH2dom.N-term.)): 0.18 ± 0.2 µM; Kd (PLCG2(SH2dom.C-term.)): 0.66 ± 0.7 µM; Kd (SHC1): 0.32 ± 0.28 µM; Kd (SHF): 27.2 ± 8.88 µM; Kd (SOCS2): 1.3 ± 0.88 µM; Kd (TEC): 0.039 ± 0.0078 µM
O=C(CCl)Nc1cccc(CNC(=O)[C@H](Cc2ccc(OP(=O)(O)O)cc2)NC(=O)Cc2ccc(F)cc2)c1 [MN551] | 86.8±3.2 | 103.7 | 51.4±1.1 | – | – | – | – | – | – | 62.8 ± 3.8 | 133 | 112 | 103 | 0.4 | 0 | 120 | –
NC(=O)CC[C@H](NC(=O)[C@@H]1CC[C@@H]2CCN(C(=O)CCCCCC#Cc3cccc4c3CN(C3CCC(=O)NC3=O)C4=O)C[C@H](NC(=O)c3cc4cc(C(F)(F)P(=O)(O)O)ccc4[nH]3)C(=O)N21)C(=O)NC(c1ccccc1)c1ccccc1 (some centres unmarked) [SD-36] | 60.9±5.8 | 92.9±1.6 | 94.0±11.1 | 91.3 ± 4.5 | 86.3 ± 12.4 | 62 ± 8.8 | 100 ± 5.2 | 98.5 ± 5.4 | 121 ± 3 | – | – | – | – | – | – | – | –
CC(=O)N1CC[C@H]2CC[C@@H](C(=O)N[C@@H](CCC(N)=O)C(=O)NC(c3ccccc3)c3ccccc3)N2C(=O)[C@@H](NC(=O)c2cc3cc(C(F)(F)P(=O)(O)O)ccc3[nH]2)C1 [SI-109] | 128.3 | 104.9 | 124.2 | 130 | 98.7 ± 6.9 | 112 | 78.9 ± 3 | 142 | 135 | – | – | – | – | – | – | – | –
C/C(=C\C(=O)N[C@H](C(=O)N1CCC[C@H]1C(=O)N(c1ccccc1)c1ccc(I)cc1)C(C)(C)C)c1ccc(OP(=O)(O)O)cc1 [STAT6-IN-1] | 36.0±0.8 | – | 0.0±0.0 | – | – | – | – | – | – | 0.3 ± 0.1 | 7.5 ± 0.6 | 48.2 ± 4.5 | 43.6 ± 7.2 | 1.5 ± 0.87 | 0 | 75.1 ± 3.7 | Kd (GRB2; dose-response, read-out: KD): 6.04 ± 1.4 µM; Kd (ITK; dose-response, read-out: KD): 10.3 µM; Kd (PLCG1(SH2dom.N-term.); dose-response, read-out: KD): 0.89 ± 0.72 µM; Kd (PLCG2(SH2dom.C-term.); dose-response, read-out: KD): 3.8 ± 0.5 µM
CC(C)(C)[C@H](NC(=O)/C=C/c1ccc(OP(=O)(O)O)cc1)C(=O)N1CCC[C@H]1C(=O)N(c1ccccc1)c1ccc(I)cc1 [STAT6-IN-3] | 69.0±7.6 | 72.4±21.8 | 0±54.7 | – | – | – | – | – | – | 32.7 ± 14.4 | 75.3 ± 10 | 62.5 ± 13.9 | 89.5 ± 4.6 | 1.01 ± 0.013 | 7.9 ± 50.6 | 136 ± 22.9 | Kd (PLCG1(SH2dom.N-term.); dose-response, read-out: KD): 3.7 ± 0.33 µM
O=C(COc1ccc2cc(C(=O)Nc3ccccc3)ccc2c1)NCc1ccc(OP(=O)(O)O)c(OP(=O)(O)O)c1 [Stafib-1] | 78.9±15.9 | 79.5±8.8 | 0±61.0 | – | – | – | – | – | – | 82.6 ± 20.2 | 80.4 ± 8.2 | 67.3 ± 22.1 | 79.7 ± 9.4 | – | 47.9 ± 29 | 159 | KD (ITK; dose-response): No Hit
